Results reported in patent publication US12077503B2, “Substituted cyclic amides and their use as herbicides” (FMC CORPORATION, priority 2015, dated 2024).
Read-outs that look alike come from different tables or passages of the source.

How the values were obtained:
Format in all cases: in vivo
[1] = test system: ragweed (common ragweed, Ambrosia elatior); assay: Test A postemergence; settings: Ambrosia artemisiifolia, post-emergence, 240 h, postemergence; for pest or weed control at 125 g/ha: 125 g ai/ha; for pest or weed control at 500 g/ha: 500 g ai/ha, 0 to 100 scale, 0 is no effect, 100 is complete control
In short: (§1)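 Preemergence directed soil spray on seeded pots, or postemergence application to plants 2–10 cm, one- to two-leaf. Solvent mixture non-phytotoxic, with surfactant. Scored ~10 d later, visually, 0–100 vs untreated.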

[2] = test system: blackgrass (Alopecurus myosuroides); assay: Test A postemergence; settings: Alopecurus myosuroides, post-emergence, 240 h, postemergence; for pest or weed control at 125 g/ha: 125 g ai/ha; for pest or weed control at 500 g/ha: 500 g ai/ha, 0 to 100 scale, 0 is no effect, 100 is complete control
In short: as §1

[3] = test system: wheat (Triticum aestivum); assay: Test A postemergence; settings: Triticum aestivum, post-emergence, 240 h, postemergence; for plant injury at 125 g/ha: 125 g ai/ha; for plant injury at 500 g/ha: 500 g ai/ha, 0 to 100 scale, 0 is no effect, 100 is complete control
In short: as §1

[4] = test system: Galium (catchweed bedstraw, Galium aparine); assay: Test A postemergence; settings: Galium, post-emergence, 240 h, postemergence; for pest or weed control at 125 g/ha: 125 g ai/ha; for pest or weed control at 500 g/ha: 500 g ai/ha, 0 to 100 scale, 0 is no effect, 100 is complete control
In short: as §1

[5] = test system: barnyardgrass (Echinochloa crus-galli); assay: Test A postemergence; settings: Echinochloa crus-galli, post-emergence, 240 h, postemergence; for pest or weed control at 125 g/ha: 125 g ai/ha; for pest or weed control at 500 g/ha: 500 g ai/ha, 0 to 100 scale, 0 is no effect, 100 is complete control
In short: as §1

[6] = test system: giant foxtail (Setaria faberii); assay: Test A postemergence; settings: Setaria faberi, post-emergence, 240 h, postemergence; for pest or weed control at 125 g/ha: 125 g ai/ha; for pest or weed control at 500 g/ha: 500 g ai/ha, 0 to 100 scale, 0 is no effect, 100 is complete control
In short: as §1

[7] = test system: ryegrass, Italian (Italian ryegrass, Lolium multiflorum); assay: Test A postemergence; settings: Lolium multiflorum, post-emergence, 240 h, postemergence; for pest or weed control at 125 g/ha: 125 g ai/ha; for pest or weed control at 500 g/ha: 500 g ai/ha, 0 to 100 scale, 0 is no effect, 100 is complete control
In short: as §1

Kochia (Kochia scoparia) = assay: Test A postemergence; settings: Bassia scoparia, post-emergence, 240 h, postemergence; for pest or weed control at 125 g/ha: 125 g ai/ha; for pest or weed control at 500 g/ha: 500 g ai/ha, 0 to 100 scale, 0 is no effect, 100 is complete control
In short: as §1

corn (Zea mays) = assay: Test A postemergence; settings: Zea mays, post-emergence, 240 h, postemergence; for plant injury at 125 g/ha: 125 g ai/ha; for plant injury at 500 g/ha: 500 g ai/ha, 0 to 100 scale, 0 is no effect, 100 is complete control
In short: as §1

[8] = test system: pigweed (Amaranthus retroflexus); assay: Test A postemergence; settings: Amaranthus retroflexus, post-emergence, 240 h, postemergence; for pest or weed control at 125 g/ha: 125 g ai/ha; for pest or weed control at 500 g/ha: 500 g ai/ha, 0 to 100 scale, 0 is no effect, 100 is complete control
In short: as §1

[9] = test system: barnyardgrass (Echinochloa crus-galli); assay: Test A preemergence; settings: Echinochloa crus-galli, pre-emergence, 240 h; for pest or weed control at 125 g/ha: 125 g ai/ha; for pest or weed control at 500 g/ha: 500 g ai/ha
In short: as §1

[10] = test system: ducksalad (Heteranthera limosa); assay: Test B flooded paddy test; settings: Heteranthera limosa, 250 g ai/ha, Flood, read-out: Ducksalad plant response rating
In short: (§2)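 Greenhouse paddy pots with 2-leaf stage plants received compound by direct addition to floodwater 3 cm deep, kept at that level. Scored visually at 13–15 d versus controls (0 no effect; 100 complete control).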

rice (Oryra sativa) = assay: Test B flooded paddy test; settings: Oryza sativa, 250 g ai/ha, Flood, read-out: Rice plant response rating
In short: as §2

[11] = test system: barnyardgrass (Echinochloa crus-galli); assay: Test B flooded paddy test; settings: Echinochloa crus-galli, 250 g ai/ha, Flood, read-out: Barnyardgrass plant response rating
In short: as §2

[12] = test system: sedge, umbrella (small-flower umbrella sedge, Cyperus difformis); assay: Test B flooded paddy test; settings: Cyperus difformis, 250 g ai/ha, Flood, read-out: Sedge, Umbrella plant response rating
In short: as §2

[13] = visual injury on 0 to 100 scale (0 no effect, 100 complete control), approx. 10 d, read-out: Ragweed plant response rating
[14] = read-out: Ragweed plant response rating
[15] = visual injury on 0 to 100 scale (0 no effect, 100 complete control), approx. 10 d, read-out: Blackgrass plant response rating
[16] = read-out: Blackgrass plant response rating
[17] = visual injury on 0 to 100 scale (0 no effect, 100 complete control), approx. 10 d, read-out: Wheat plant response rating
[18] = read-out: Wheat plant response rating
[19] = visual injury on 0 to 100 scale (0 no effect, 100 complete control), approx. 10 d, read-out: Galium plant response rating
[20] = read-out: Galium plant response rating
[21] = visual injury on 0 to 100 scale (0 no effect, 100 complete control), approx. 10 d, read-out: Barnyardgrass plant response rating
[22] = read-out: Barnyardgrass plant response rating
[23] = visual injury on 0 to 100 scale (0 no effect, 100 complete control), approx. 10 d, read-out: Foxtail, Giant plant response rating
[24] = read-out: Foxtail, Giant plant response rating
[25] = visual injury on 0 to 100 scale (0 no effect, 100 complete control), approx. 10 d, read-out: Ryegrass, Italian plant response rating
[26] = read-out: Ryegrass, Italian plant response rating
[27] = visual injury on 0 to 100 scale (0 no effect, 100 complete control), approx. 10 d, read-out: Kochia plant response rating
[28] = read-out: Kochia plant response rating
[29] = visual injury on 0 to 100 scale (0 no effect, 100 complete control), approx. 10 d, read-out: Corn plant response rating
[30] = read-out: Corn plant response rating
[31] = visual injury on 0 to 100 scale (0 no effect, 100 complete control), approx. 10 d, read-out: Pigweed plant response rating
[32] = read-out: Pigweed plant response rating
[33] = preemergence, 0 to 100 scale where 0 is no effect and 100 is complete control, approx. 10 d, read-out: Barnyardgrass plant response rating
[34] = preemergence, 0 to 100 scale where 0 is no effect and 100 is complete control, read-out: Barnyardgrass plant response rating
[35] = 0 to 100 scale where 0 is no effect and 100 is complete control
[36] = scale of 0 to 100 where 0 is no effect and 100 is complete control

CC(C)Oc1ccc([C@H]2CNC(=O)[C@@H]2C(=O)Nc2cccc(F)c2F)cc1 [Compound 1136] showed a pest or weed control at 125 g/ha [1, 13] of 0%, a pest or weed control at 500 g/ha [1, 14] of 0% and a pest or weed control at 125 g/ha [2, 15] of 0%. The pest or weed control at 500 g/ha [2, 16] was 30%, the plant injury at 125 g/ha [3, 17] was 0% and the plant injury at 500 g/ha [3, 18] was 0%. The pest or weed control at 125 g/ha [4, 19] was 0%, the pest or weed control at 500 g/ha [4, 20] was 20% and the pest or weed control at 125 g/ha [5, 21] was 30%. The pest or weed control at 500 g/ha [5, 22] was 90%, the pest or weed control at 125 g/ha [6, 23] was 20% and the pest or weed control at 500 g/ha [6, 24] was 90%. The pest or weed control at 125 g/ha [7, 25] was 0%, the pest or weed control at 500 g/ha [7, 26] was 0% and the pest or weed control at 125 g/ha (Kochia (Kochia scoparia); [27]) was 0%. The pest or weed control at 500 g/ha (Kochia (Kochia scoparia); [28]) was 0%, the plant injury at 125 g/ha (corn (Zea mays); [29]) was 0% and the plant injury at 500 g/ha (corn (Zea mays); [30]) was 0%. It also gave a pest or weed control at 125 g/ha [8, 31] of 0%, a pest or weed control at 500 g/ha [8, 32] of 0% and a pest or weed control at 125 g/ha [9, 33] of 30%. It also gave a pest or weed control at 500 g/ha [9, 34] of 90%, a pest or weed control at 250 g/ha [10, 35] of 85% and a pest or weed control at 250 g/ha (rice (Oryra sativa); [35]) of 0%. It also gave a pest or weed control at 250 g/ha [11, 35] of 0% and a pest or weed control at 250 g/ha [12, 35] of 0%.

CN1C[C@H](c2cc(F)c(C(F)(F)F)c(F)c2)[C@@H](C(=O)Nc2ccc(F)cc2F)C1=O [Compound 901] was tested, and the pest or weed control at 125 g/ha ([1]; visual injury rating after approximately 10 d, read-out: Ragweed plant response rating (0 to 100 scale, 0 no effect, 100 complete control)) was 0%, the pest or weed control at 125 g/ha ([2]; visual injury rating after approximately 10 d, read-out: Blackgrass plant response rating (0 to 100 scale, 0 no effect, 100 complete control)) was 20% and the plant injury at 125 g/ha ([3]; visual injury rating after approximately 10 d, read-out: Wheat plant response rating (0 to 100 scale, 0 no effect, 100 complete control)) was 20%. It also gave a pest or weed control at 125 g/ha ([4]; visual injury rating after approximately 10 d, read-out: Galium plant response rating (0 to 100 scale, 0 no effect, 100 complete control)) of 0%, a pest or weed control at 125 g/ha ([5]; visual injury rating after approximately 10 d, read-out: Barnyardgrass plant response rating (0 to 100 scale, 0 no effect, 100 complete control)) of 60% and a pest or weed control at 125 g/ha ([6]; visual injury rating after approximately 10 d, read-out: Foxtail, Giant plant response rating (0 to 100 scale, 0 no effect, 100 complete control)) of 90%. For the same compound, the pest or weed control at 125 g/ha ([7]; visual injury rating after approximately 10 d, read-out: Ryegrass, Italian plant response rating (0 to 100 scale, 0 no effect, 100 complete control)) was 0%, the pest or weed control at 125 g/ha (Kochia (Kochia scoparia); visual injury rating after approximately 10 d, read-out: Kochia plant response rating (0 to 100 scale, 0 no effect, 100 complete control)) was 30% and the plant injury at 125 g/ha (corn (Zea mays); visual injury rating after approximately 10 d, read-out: Corn plant response rating (0 to 100 scale, 0 no effect, 100 complete control)) was 40%. It also gave a pest or weed control at 125 g/ha ([8]; visual injury rating after approximately 10 d, read-out: Pigweed plant response rating (0 to 100 scale, 0 no effect, 100 complete control)) of 0%, a pest or weed control at 125 g/ha [9, 34] of 90% and a pest or weed control at 500 g/ha ([9]; Preemergence, visual injury vs untreated controls after approximately 10 d, read-out: Barnyardgrass plant response rating (0 to 100 scale where 0 is no effect and 100 is complete control)) of 90%. It also gave a pest or weed control at 250 g/ha [10, 36] of 60%, a pest or weed control at 250 g/ha (rice (Oryra sativa); [36]) of 0% and a pest or weed control at 250 g/ha [11, 36] of 60%. For the same compound, the pest or weed control at 250 g/ha [12, 36] was 0%.

CN1C[C@H](c2csc(C(F)F)c2)[C@@H](C(=O)Nc2ccccc2F)C1=O [Compound 1123] showed a pest or weed control at 125 g/ha [1, 13] of 30%, a pest or weed control at 500 g/ha [1, 14] of 50% and a pest or weed control at 125 g/ha [2, 15] of 30%. For the same compound, the pest or weed control at 500 g/ha [2, 16] was 80%, the plant injury at 125 g/ha [3, 17] was 0% and the plant injury at 500 g/ha [3, 18] was 60%. For the same compound, the pest or weed control at 125 g/ha [4, 19] was 40%, the pest or weed control at 500 g/ha [4, 20] was 50% and the pest or weed control at 125 g/ha [5, 21] was 90%. For the same compound, the pest or weed control at 500 g/ha [5, 22] was 90%, the pest or weed control at 125 g/ha [6, 23] was 90% and the pest or weed control at 500 g/ha [6, 24] was 90%. For the same compound, the pest or weed control at 125 g/ha [7, 25] was 30%, the pest or weed control at 500 g/ha [7, 26] was 50% and the pest or weed control at 125 g/ha (Kochia (Kochia scoparia); [27]) was 60%. For the same compound, the pest or weed control at 500 g/ha (Kochia (Kochia scoparia); [28]) was 70%, the plant injury at 125 g/ha (corn (Zea mays); [29]) was 20% and the plant injury at 500 g/ha (corn (Zea mays); [30]) was 80%. It also gave a pest or weed control at 125 g/ha [8, 31] of 0%, a pest or weed control at 500 g/ha [8, 32] of 20% and a pest or weed control at 125 g/ha [9, 33] of 90%. It also gave a pest or weed control at 500 g/ha ([9]; preemergence, visual injury rating about 10 d after treatment, 0 to 100 scale (0 no effect, 100 complete control), read-out: Barnyardgrass plant response rating) of 90%, a pest or weed control at 250 g/ha [10, 35] of 100% and a pest or weed control at 250 g/ha (rice (Oryra sativa); [35]) of 25%. For the same compound, the pest or weed control at 250 g/ha [11, 35] was 70% and the pest or weed control at 250 g/ha [12, 35] was 0%.
